Results taken from PMC9321043, “Synthesis, Structure–Activity Relationships, and Parasitological Profiling of Brussonol Derivatives as New Plasmodium falciparum Inhibitors” (Pharmaceuticals, 2022).
Several values for one entry are separate records, joined by “and”; a condition that tells them apart may be missing. Identical values can stand only once.

Tests used:
HepG2 cells = test: Cytotoxic test on immortalized cells, MTT; format: cell-based, human; conditions: Homo sapiens, HepG2, 72 h
Description: The cytotoxic effects of brussonol and derivatives were evaluated against the human hepatocellular carcinoma cell line (HepG2). The cells were cultivated in an RPMI medium supplemented with 10% (v/v) fetal bovine serum and 25 µg/mL gentamicin. Conditions for the cultivation of these cells were 37 °C and 5% CO2, and every 2 days the supplemented medium was changed.
For experimental procedures, the cells were trypsinized and transferred to a 96-well plate at 30,000 cells per well (180 µL). The plate was incubated at 37 °C and 5% CO2 to allow cell adhesion. Next, 20 µL of serial dilutions of the compounds tested were added to the plate, with a range of concentrations tested from 400–6.25 µM. Cells without any compounds were used as a positive control for growing and the wells containing only medium were used as negative controls. The plate was incubated for 72 h at 37 °C and 5% CO2. After incubation, a microscope was used to determine the highest compound concentration to be used in the experiments (highest concentration without precipitation). A colorimetric assay was used to evaluate cytotoxicity. This assay is based on the metabolic cell activity in the presence of 3-(4,5-dimethylthiazol-2-yl)-2,5-diphenyltetrazolium bromide (MTT). Shortly after incubation, 20 µL of a solution of MTT at 5 mg/mL (solubilized in phosphate buffer) is added to each well. The plate is incubated for 3 to 4 h at 37 °C to allow MTT cleavage in living cells. Then, the supernatant is removed, and 100 µL of dimethylsulfoxide (DMSO) is added to solubilize the purple formazan crystals. The absorbance, which is proportional to the number of viable cells, was determined using a SpectraMAX Plus 384 plate reader (Molecular Devices Corp., Sunnyvale, CA) (λ = 570 nm). All compounds described here were purchased from Sigma-Aldrich (verificar local).
After the IC50 against the parasite and the human cell line is determined, it is possible to calculate the SI. It is calculated as the formula below:SI = IC50^HepG2/IC50^Pf.
For our reference, compounds with SI values higher than 10 are considered well tolerated by the cellular model used, and they are considered for further evaluation.

P. falciparum = test: In vitro combination with artesunate, fixed-ratio isobologram; format: cell-based, Plasmodium falciparum
Description: A drug combination investigation is important to assess whether the combination of the tested compound with a known antimalarial drug is advantageous or not. In this assay, a fixed molar ratio was used to assess the combination profile of brussonol and artesunate. The range of concentrations tested was based on the assessed IC50 values of both the compounds previously determined. In this method, we first determined the additive isobole, which defined the range of IC50 values pairs to be attributed to an additive (neutral) character of combination. Next, the combination pairs were plotted. Data points distributed below or above the additive isobole indicate a synergic or antagonistic profile, respectively.
This assay was adapted from the work done by Fivelman and collaborators (2004). Consideration of additivity ranges was included in the analysis, as described by Grabovsky and Tallarida (2004). Brussonol and artesunate were diluted and combined in a 96-well plate in […] fixed-ratio combinations (1:0, 6:1, 5:2, 4:3, 3:4, 2:5, 1:6, 0:1). Starting concentrations were 6× IC50 for both compounds. […] The absolute IC50s of brussonol and artesunate (proportions 1:0 and 0:1), the partial IC50s (IC50^brussonol and IC50^artesunate) for each combination (6:1, 5:2, 4:3, 3:4, 2:5, 1:6), and the fractional inhibitory concentrations for each combination were determined.

## CC(C)c1cc2c(c(O)c1O)C[C@@]13CCCC(C)(C)[C@@H]1C[C@@H]2O3 [Compound 1, brussonol]
HepG2 cells
  IC50: 67 ± 4 µM
P. falciparum; brussonol combined with artesunate, proportion 1:1 respective to each IC50
  sum of fractional inhibitory concentrations (FICindex): ~ 1 and 1.1 ± 0.1
P. falciparum; isobologram, fixed-ratio combinations
  combination profile with artesunate: additive effect
